Where a name gives a salt, the structure may show the parent alone. Read-outs that look alike come from different tables or passages of the source.

This is an account of results in patent US20240239794A1, “PKC-Theta Modulators” (Exscientia AI Limited, priority 2021, published 2024).

The target of assay [1] is Recombinant human PKC-theta (His-tagged 362-706) (Homo sapiens (Human), UniProt Q04759). Put plainly: PKC-theta inhibition assay (HTRF KinEASE kit). Type of assay: biochemical. To be noted: ATP 6.5 μM; for IC50: binned A to H, read-out: PKC-theta HTRF pIC50 (binned) (converted). An outline of the steps: (§1)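 HTRF KinEASE kinase assay, buffer supplemented with 10 mM MgCl2, 1 mM DTT, 0.1% Tween 20; enzyme at 10 ng/ml preincubated 30 min on ice with compound. PKC-theta: 525 nM STK substrate, 6.5 μM ATP, 30 min at 25° C; PKC-delta: 243 nM substrate, 5.7 μM ATP, 20 min. IC50 from 4-parameter fit of 10-dose series.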
Sequence of Recombinant human PKC-theta (His-tagged 362-706) (Q04759 362-706): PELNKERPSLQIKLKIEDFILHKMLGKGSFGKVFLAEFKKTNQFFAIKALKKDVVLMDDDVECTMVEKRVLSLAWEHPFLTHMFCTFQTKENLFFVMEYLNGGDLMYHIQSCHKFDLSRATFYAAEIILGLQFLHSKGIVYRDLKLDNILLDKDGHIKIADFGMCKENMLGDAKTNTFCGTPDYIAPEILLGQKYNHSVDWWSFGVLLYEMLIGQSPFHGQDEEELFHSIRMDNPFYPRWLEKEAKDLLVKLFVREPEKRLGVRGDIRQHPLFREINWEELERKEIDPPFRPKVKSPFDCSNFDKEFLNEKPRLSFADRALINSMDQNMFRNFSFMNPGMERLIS

The target of assay [2] is Recombinant human PKC-delta (His-tagged 345-676) (Homo sapiens (Human), UniProt Q05655). Put plainly: PKC-delta inhibition assay (HTRF KinEASE kit), PKC-theta/PKC-delta selectivity. To be noted: ratio; for PKC-theta/PKC-delta selectivity: PKC-theta over PKC-delta, HTRF assays; for PKC-theta/PKC-delta selectivity (binned): binned A to G. Type of assay: biochemical. An outline of the steps: as §1
Sequence of Recombinant human PKC-delta (His-tagged 345-676) (Q05655 345-676): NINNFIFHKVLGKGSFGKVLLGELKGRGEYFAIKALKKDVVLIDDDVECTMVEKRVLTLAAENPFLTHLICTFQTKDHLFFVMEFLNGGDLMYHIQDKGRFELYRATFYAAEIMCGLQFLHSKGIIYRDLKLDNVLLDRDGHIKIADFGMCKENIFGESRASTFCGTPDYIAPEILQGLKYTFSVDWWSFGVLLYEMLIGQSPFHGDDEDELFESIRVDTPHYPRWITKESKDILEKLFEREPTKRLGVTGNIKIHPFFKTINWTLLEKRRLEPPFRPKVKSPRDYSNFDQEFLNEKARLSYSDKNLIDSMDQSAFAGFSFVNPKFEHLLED
A general note: Time-resolved FRET reads energy transfer from a long-lived donor to a nearby acceptor.

In assay [3] the test system is IL-2 secretion by human effector memory T cells (TEM). Put plainly: Effector memory T cells IL-2 release assay. Type of assay: cell-based. To be noted: T-cell, 24 h. In a few lines: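 Human CD4+ effector memory T cells (negatively sorted from donor PBMC), 5,000 per well, stimulated with CD3/CD28 beads and 10 semi-log compound doses for 24 h at 37° C, 0.1% DMSO. Supernatant IL-2 measured by HTRF; IC50 from 4-parameter logistic fit; viability checked by flow cytometry.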

Setting [4] is: human CD4+ TEM cells, CD3/CD28 bead stimulation, binned A to G, read-out: PKC-theta IL2 pIC50 (binned) (converted).
The mark [5] stands for this setting: human CD4+ TEM cells, CD3/CD28 bead stimulation, read-out: PKC-theta IL2 pIC50 (converted).

For the molecule `CC1(C)C(=O)Nc2nccc(-c3ccn([C@H]4CC[C@H](N)CC4)n3)c21` [Example 14], the “PKC-theta HTRF pIC50” value in assay [1] came to 8.5. Moreover, the IC50 in assay [1] was 3.16 to 10 nM; in assay [3] (setting [4]), 31.6 to 100 nM; in assay [3] (setting [5]) it was 50.1 nM. In addition, the PKC-theta/PKC-delta selectivity in assay [2] turned out to be 3. In addition, the “PKC-theta/PKC-delta selectivity (binned)” value in assay [2] was “F (F means a ratio of between 1 and 5)”.

As to `CC1(C)C(=O)Nc2nccc(-c3nn([C@@H]4CCNC4)c4ccccc34)c21` [Example 15], in assay [1], the “PKC-theta HTRF pIC50” value is on record as 8.6 and the IC50 was 1 to 3.16 nM. Further, in assay [2], the PKC-theta/PKC-delta selectivity was 14; the “PKC-theta/PKC-delta selectivity (binned)” value is “D (D means a ratio of between 10 and 20)”. Besides, the IC50 in assay [3] (setting [4]) was 31.6 to 100 nM. Moreover, in assay [3] (setting [5]), the IC50 is 39.8 nM.

Consider `CC1(C)C(=O)Nc2nccc(-c3nn([C@H]4CCNC4)c4ccccc34)c21` [Example 16, 3,3-dimethyl-4-[1-[(3S)-pyrrolidin-3-yl]indazol-3-yl]-1H-pyrrolo[2,3-b]pyridin-2-one Dihydrochloride], for which, in assay [1], the “PKC-theta HTRF pIC50” value was 8.3 and the IC50 was 3.16 to 10 nM. Besides, in assay [2], the PKC-theta/PKC-delta selectivity was found to be 18; the “PKC-theta/PKC-delta selectivity (binned)” value was “D (D means a ratio of between 10 and 20)”. For the same molecule, the IC50 in assay [3] (Homo sapiens, read-out: PKC-theta IL2 pIC50 (binned) (converted)) was 31.6 to 100 nM. In assay [3] (Homo sapiens, read-out: PKC-theta IL2 pIC50 (converted)), the IC50 was 63.1 nM.

Consider `CC1(O)C(=O)Nc2nccc(-c3cn([C@H]4CCNC4)c4ccccc34)c21` (stereo partly drawn) [Example 18], for which the “PKC-theta HTRF pIC50” value in assay [1] came to 7.9. The IC50 in assay [1] is 10 to 31.6 nM; in assay [3] (setting [4]) it was 316 to 1000 nM; in assay [3] (setting [5]) it was 316 nM. The PKC-theta/PKC-delta selectivity in assay [2] worked out at 11. In addition, the “PKC-theta/PKC-delta selectivity (binned)” value in assay [2] was “D (D means a ratio of between 10 and 20)”.

As for `CC1(C)C(=O)Nc2nccc(-c3nn([C@@H]4CCCNC4)c4ccccc34)c21` [Example 19], in assay [1], the “PKC-theta HTRF pIC50” value was found to be 8.4 and the IC50 is 3.16 to 10 nM. In addition, in assay [2], the PKC-theta/PKC-delta selectivity is on record as 9; the “PKC-theta/PKC-delta selectivity (binned)” value is “E (E means a ratio of between 5 and 10)”. For the same molecule, the IC50 in assay [3] (setting [4]) is 31.6 to 100 nM. Besides, the IC50 in assay [3] (setting [5]) was 50.1 nM.

For the molecule `CC1(C)C(=O)Nc2nccc(-c3nn([C@H]4CCCNC4)c4ccccc34)c21` [Example 20], the “PKC-theta HTRF pIC50” value in assay [1] was 7.8. Besides, the figures for the IC50 in assay [1], in assay [3] (setting [4]) and in assay [3] (setting [5]) were 10 to 31.6 nM, 100 to 316 nM and 200 nM, respectively. Moreover, in assay [2], the PKC-theta/PKC-delta selectivity was found to be 13. Also, the “PKC-theta/PKC-delta selectivity (binned)” value in assay [2] is “D (D means a ratio of between 10 and 20)”.

As to `CC1(C)C(=O)Nc2nccc(-c3cn(C4(CC#N)CCC4)c4ccccc34)c21` [Example 21, 2-[1-[3-(3,3-dimethyl-2-oxo-1H-pyrrolo[2,3-b]pyridin-4-yl)indol-1-yl]cyclobutyl]acetonitrile], in assay [1], the “PKC-theta HTRF pIC50” value amounted to 7.3 and the IC50 is 31.6 to 100 nM. Besides, in assay [2], the PKC-theta/PKC-delta selectivity is reported as 9; the “PKC-theta/PKC-delta selectivity (binned)” value was “E (E means a ratio of between 5 and 10)”. Besides, in assay [3] (setting [4]), the IC50 is over 1000 nM. Further, in assay [3] (setting [5]), the IC50 was 1000 nM.

Regarding `CC1(C)C(=O)Nc2nccc(-c3nn(C4(CC#N)CCC4)c4ccccc34)c21` [Example 22], in assay [1], the “PKC-theta HTRF pIC50” value came to 8.0 and the IC50 was 3.16 to 10 nM. In assay [2], the PKC-theta/PKC-delta selectivity was determined as 15; the “PKC-theta/PKC-delta selectivity (binned)” value was “D (D means a ratio of between 10 and 20)”. Besides, the IC50 in assay [3] (setting [4]) was 316 to 1000 nM. The IC50 in assay [3] (setting [5]) is 316 nM.

Consider `CC1(C)C(=O)Nc2nccc(-c3nn(C4(CO)CCNC4)c4ccccc34)c21` (stereo not drawn) [Example 23], for which, in assay [1], the “PKC-theta HTRF pIC50” value was 9.3 and the IC50 was at most 1 nM. Besides, in assay [2], the PKC-theta/PKC-delta selectivity is reported as 11; the “PKC-theta/PKC-delta selectivity (binned)” value was “D (D means a ratio of between 10 and 20)”. Besides, the IC50 in assay [3] (setting [4]) is 10 to 31.6 nM. Also, the IC50 in assay [3] (setting [5]) was 31.6 nM.
